The record followed here is patent EP1210344B1, “HETEROPOLYCYCLIC COMPOUNDS AND THEIR USE AS METABOTROPIC GLUTAMATE RECEPTOR ANTAGONISTS” (NPS PHARMACEUTICALS, INC., priority 1999, dated 2001).

The experiment addresses chimeric CaR/mGluR5d receptor (Homo sapiens, UniProt P41594). In words: CaR/mGluR5d Screening Assay (FLIPR, intracellular calcium). The format is cell-based. Particulars: HEK 293 cells expressing the chimeric CaR/mGluR5d receptor, Fluo-3 fluorescence; read-out: IC50 value in relation to CaR/mGluR5d. In general terms: Calcium assays in cells follow changes in intracellular calcium, usually with a dye or a luminescent sensor.

chimeric CaR/mGluR5d receptor, sequence (P41594 580-876, change not shown): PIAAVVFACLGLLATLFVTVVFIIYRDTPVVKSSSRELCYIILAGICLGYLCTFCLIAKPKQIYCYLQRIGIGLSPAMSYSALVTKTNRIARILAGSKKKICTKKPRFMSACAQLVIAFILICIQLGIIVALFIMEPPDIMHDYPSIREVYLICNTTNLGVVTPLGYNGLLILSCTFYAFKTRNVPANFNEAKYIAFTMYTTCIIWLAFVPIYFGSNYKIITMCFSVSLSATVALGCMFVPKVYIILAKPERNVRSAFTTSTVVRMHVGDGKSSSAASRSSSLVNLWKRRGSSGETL
chimeric CaR/mGluR5d receptor, sequence (P41180 20-610 partner): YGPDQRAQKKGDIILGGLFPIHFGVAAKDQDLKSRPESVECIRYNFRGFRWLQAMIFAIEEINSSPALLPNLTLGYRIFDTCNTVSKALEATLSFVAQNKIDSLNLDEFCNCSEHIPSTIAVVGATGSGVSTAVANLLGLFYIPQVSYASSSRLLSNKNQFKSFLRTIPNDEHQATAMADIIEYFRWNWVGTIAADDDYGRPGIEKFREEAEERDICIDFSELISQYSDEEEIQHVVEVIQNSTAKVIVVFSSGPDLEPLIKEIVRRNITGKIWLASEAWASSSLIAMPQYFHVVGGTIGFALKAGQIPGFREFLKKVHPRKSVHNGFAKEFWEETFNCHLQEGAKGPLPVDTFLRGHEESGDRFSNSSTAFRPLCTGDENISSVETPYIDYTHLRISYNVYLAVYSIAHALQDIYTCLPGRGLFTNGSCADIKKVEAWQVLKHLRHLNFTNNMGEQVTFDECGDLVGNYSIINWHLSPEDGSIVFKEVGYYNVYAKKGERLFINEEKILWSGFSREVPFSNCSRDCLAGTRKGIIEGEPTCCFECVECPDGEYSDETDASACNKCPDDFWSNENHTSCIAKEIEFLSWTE
Protocol: HEK 293 cells expressing the chimeric CaR/mGluR5d receptor (clonal cell line hCaR/hmGluR5d_hek6) are plated 24 hours prior to assay at a density of 100,000 cells per well in Collagen I-coated 96-well black, clear bottom plates (Becton Dickenson) in DMEM supplemented with 10% FBS (Hyclone).
On the day of the assay, tissue culture medium is aspirated from the wells of a plate and 80 µL of Assay Buffer (Assay Buffer is: 20 mM HEPES, 146 mM NaCl, 5 mM KCl, 1 mM MgCl2, 1 mM CaCl2, 1 mg/ml BSA, 1 mg/ml glucose, pH 7.4) supplemented with 6 µM of the Ca^2+-sensitive dye, Fluo-3 AM (Molecular Probes) and 0.025% Pluronic (Molecular Probes) is added to each well. The plate is then incubated in the dark for 1 hour at room temperature to efficiently load the cells with Fluo-3. At the end of the incubation, extracellular Fluo-3 is removed by washing the plate with Assay buffer. Assay Buffer is added back to each well (final volume = 160 µL) prior to beginning the assay.
The plate is loaded into a FLIPR robotic device (Molecular Devices) with the laser setting at 0.8 Watts. […] Relative fluorescence intensity (excitation λ = 488 nm / emission λ = 510 nM) is monitored at relevant time intervals throughout the assay period to measure receptor activation and/or inhibition.

Turning to `N#Cc1cccc(-c2nc(-c3ccccn3)co2)c1` [B52, 2-[3-cyanophenyl]-4-[pyridin-2-yl]-1,3-oxazole], the IC50 is 45 nM.
